In general, GI50 refers to the concentration giving 50% growth inhibition. What is called microsomal CLint is a measure of how fast metabolising enzymes remove a compound, apart from limits set by blood flow. Read a high microsomal CLint as faster metabolism.

We go through 3 compounds from patent US12577213B2 (NINGBO COMBIREG PHARMACEUTICAL TECHNOLOGY CO., LTD., priority 2020, dated 2026).

Where two headings read alike, the source gives them in different places.

For series [1], the system named is A549 (non-small cell lung cancer). Kind of series: NCI method SRB growth inhibition, A549. Format: cell-based. Conditions: Homo sapiens; A549, treated 48 hours, SRB stain. The procedure, abridged: (§1)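 Cells were exposed to compound for 48 h, with a parallel plate fixed at the time of dosing (Tz) and a vehicle control (C). SRB staining was read at OD 515 nm. GI50 is the concentration at 50% growth relative to C−Tz, TGI is where Ti=Tz, and LC50 is −50% relative to Tz.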

Series [2] concerns 786-0 (renal cancer). As to the kind of experiment: NCI method SRB growth inhibition, 786-0. In kind it is cell-based. Conditions: Homo sapiens; 786-0, treated 48 hours, SRB stain. The procedure, abridged: as §1
In general terms: Sulforhodamine B stains cellular protein and so reports cell mass.

The test system of series [3] is HCT116 (colon cancer). Kind of series: NCI method SRB growth inhibition, HCT116. Format: cell-based. Conditions: Homo sapiens, HCT-116; HCT116, treated 48 hours, SRB stain. The procedure, abridged: as §1
Series [4] deals with K562 (leukemia). As to the kind of experiment: NCI method SRB growth inhibition, K562. In kind it is cell-based. The conditions noted are these: Homo sapiens; K562, treated 48 hours, SRB stain. The procedure, abridged: as §1
Series [5] has as its system PC-3 (prostate cancer). As to the kind of experiment: NCI method SRB growth inhibition, PC-3. In kind it is cell-based. Conditions: Homo sapiens; PC-3, treated 48 hours, SRB stain. The procedure, abridged:
as §1

Series [6] relates to LOX-IMVI (melanoma). As to the kind of experiment: NCI method SRB growth inhibition, LOX-IMVI. Format: cell-based. The conditions noted are these: Homo sapiens, treated 48 hours, SRB stain. The procedure, abridged:
as §1

The test system of series [7] is SF295 (central nervous system tumor). As to the kind of experiment: NCI method SRB growth inhibition, SF295. In kind it is cell-based. The conditions noted are these: Homo sapiens, SF-295; SF295, treated 48 hours, SRB stain. The procedure, abridged: as §1
In series [8] the test system is OVCAR-3 (ovarian cancer). Kind of series: NCI method SRB growth inhibition, OVCAR-3. In kind it is cell-based. The conditions noted are these: Homo sapiens; OVCAR-3, treated 48 hours, SRB stain. The procedure, abridged:
as §1

The subject of series [9] is HS 578T (breast cancer). As to the kind of experiment: NCI method SRB growth inhibition, HS 578T. The conditions noted are these: Homo sapiens, HS578T, treated 48 hours, SRB stain. In kind it is cell-based. The procedure, abridged:
as §1

Series [10] in a line: Liver microsomes stability. Format: in vitro ADME, human. Conditions: for half-life at 1 μM: human, human liver microsomes. The procedure, abridged:
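Compound at 1 μM final incubated with 1 mg/mL human liver microsomes and 1 mM NADPH (no-NADPH control), sampled at 0, 5, 15, 30, 60 min. Remaining parent quantified by LC-MS/MS; T1/2 = 0.693/k.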
On the technique in general: Liver microsomes are vesicles of endoplasmic reticulum, rich in cytochrome P450 enzymes.

Series [11] in a line: Metabolic stability in vivo (plasma half-life after IV). Conditions: mouse, plasma, iv; intravenously at 1 mg/kg, male BALB/c nude mice; read-out: T½ of (IV in nude mice) (converted). As for the experimental part:
The intravenous injection group of the embodiment compound was prepared with the mixed solvent of DMA:PEG400:30% SBECD=5:25:70 to form a 0.2 mg/mL of solution, and administered intravenously at 1 mg/kg of weight; and the oral preparation group was prepared with 0.5% MC to form a 1 mg/mL of solution, and administered by oral gavage at 10 mg/kg weight.
• Male BALB/c nude mice, 4-5 weeks old, purchased from Shanghai SLAC. 3. Experiment Method: 3.1 Instruments: • Liquid chromatography system: Shimadzu liquid chromatography system Shimadzu LC-30AD • MS/MS system: Applied Biosystems API5500 • Data collection: Analyst Software 1.5.2 3.2 Chromatographic Conditions Chromatographic Column • Analytical column: Kinetex 2.6u C18 100 A column (3.0 mm×30 mm) • Mobile phase: A: 10 mM NH4OAc (0.1% FA); B: Acetonitrile with 0.1% […] • Flow rate: 1.0 mL/min
Ion source was an electron spray ionization (ESI source) with negative ion detection; spray voltage source was 5500 V; ion source gas 1 (N2) was 50 psi; ion source gas 2 (N2) was 50 psi; air curtain gas (N2) was 30 psi. Scanning mode was multiple reaction monitoring (MRM); scanning time was 80 ms; collision gas pressure was 10 psi;
Grouping experiment, with three animals in each group, starting from now on, administration was started according to the weight of the animals. Blood was collected according to 5 min, 15 min, 30 min, 1 h, 2 h, 4 h, 8 h and 24 h after administration.
To 25.0 μL of plasma, 25.0 μL of internal standard solution (Tolbutamide (250 ng/mL) in acetonitrile), 25.0 μL of acetonitrile and 100 μL of acetonitrile were added, and the mixture was vortexed for 1 min, and centrifuged for 5 min (14000 rpm). 120 μL of the resulting supernatant was added with 80.0 μL of water (containing 1% formic acid) and mixed well, then analyzed by LC/MS/MS.

The mark [12] stands for this setting: 1 μM compound, 1 mg/mL human liver microsomes, 1 mM NADPH.
[13] abbreviates: 1 μM compound, 1 mg/mL human liver microsomes, 1 mM NADPH, read-out: T½ of HLM.
[14] abbreviates: as repeated in Table 4, read-out: T½ of HLM (in vitro).

For the compound `[2H]C([2H])([2H])Oc1cc(C(=O)Nc2cc3c(cc2Oc2cc(C)cc(C)c2)C(=O)N[C@@H](CC(=O)N(C)C)C(=O)N3)c(Br)c(OC([2H])([2H])[2H])c1OC([2H])([2H])[2H]` [Compound 20, (S)-2-bromo-N-[3-[2-(dimethylamino)-2-oxoethyl]-7-(3,5-dimethylphenoxy)-2,5-dioxo-2,3,4,5-tetrahydro-1H-benzo[e][1,4]diazepin-8-yl]-3,4,5-tris(trideuteromethoxy)benzamide], the GI50 in [1] is under 5 nM; in series [2], 26.5 nM; in series [3], under 5 nM; in series [4], under 5 nM; in series [5], under 5 nM; in series [6], under 5 nM. Further, the GI50 in series [7] is 19.9 nM; in [8] it was under 5 nM; in series [9] it was under 5 nM. In series [10] (setting [12]), the microsomal CLint at 1 μM was determined as 2.1 µL/min/mg. Also, the half-life at 1 μM in series [10] (setting [13]) and in series [10] (setting [14]) was 330 min in each case. Besides, in series [11], the half-life is 48 min.

For the compound `[2H]C([2H])([2H])Oc1cc(C(=O)Nc2cc3c(cc2Oc2cc(C)cc(C)c2)C(=O)N(C)[C@@H](CC(=O)N(C)C)C(=O)N3)c(Br)c(OC([2H])([2H])[2H])c1OC([2H])([2H])[2H]` [Compound 16, (S)-2-bromo-N-[3-[2-(dimethylamino)-2-oxoethyl]-7-(3,5-dimethylphenoxy)-4-methyl-2,5-dioxo-2,3,4,5-tetrahydro-1H-benzo[e][1,4]diazepin-8-yl]-3,4,5-tris(trideuteromethoxy)benzamide], the GI50 in series [1] is under 5 nM; in series [2], 11.2 nM; in series [3] it was under 5 nM; in [4] it was under 5 nM; in series [5], under 5 nM; in series [6], under 5 nM. Moreover, the GI50 in series [7] is 7.6 nM; in series [8] it was under 5 nM; in series [9], under 5 nM. Moreover, in series [10] (setting [12]), the microsomal CLint at 1 μM was 11.6 µL/min/mg. The half-life at 1 μM in series [10] (setting [13]) was found to be 56.9 min; in [10] (setting [14]), 59.8 min. For the same compound, the half-life in [11] was 35.1 min.

For the compound `[2H]C([2H])([2H])Oc1cc(C(=O)Nc2cc3c(cc2Oc2cc(C)cc(C)c2)C(=O)N[C@@H](CC(=O)N(C([2H])([2H])C([2H])([2H])[2H])C([2H])([2H])C([2H])([2H])[2H])C(=O)N3)c(Br)c(OC([2H])([2H])[2H])c1OC([2H])([2H])[2H]` [Compound 5, (S)-2-bromo-N-[3-[2-[bis(pentadeuteroethyl)amino]-2-oxoethyl]-7-(3,5-dimethylphenoxy)-2,5-dioxo-2,3,4,5-tetrahydro-1H-benzo[e][1,4]diazepin-8-yl]-3,4,5-tris(trideuteromethoxy)benzamide], the GI50 in series [1] was under 5 nM; in [2], 26.1 nM; in [3], under 5 nM; in [4], under 5 nM; in [5], under 5 nM; in [6], under 5 nM. Also, the GI50 in [7] was 17.4 nM; in series [8], under 5 nM; in series [9], under 5 nM. The compound also registered a microsomal CLint at 1 μM in series [10] (setting [12]) of 3.2 µL/min/mg. For the same compound, the half-life at 1 μM in series [10] (setting [13]) and in [10] (setting [14]) was 217 min each time. For the same compound, in series [11], the half-life was 91.2 min.
